Assay results taken from patent EP0313703A1, “Use of 24,25-dihydroxycholecalciferole in the treatment of urinary calculus” (KUREHA KAGAKU KOGYO KABUSHIKI KAISHA, priority 1987, dated 1989).

What was measured:
male or female ICR mice = assay: 30-day repeated oral administration: body weight and histopathology; assay type: in vivo; details: 10, 100 or 1000 µg/kg daily p.o. for 30 days
Description: After dissolving 24R,25-(OH)₂-D₃, at a prescribed concentration, into the triglyceride of a fatty acid of 8 to 10 carbon atoms containing 1 % of ethanol, the solution was forcibly and orally administered to each of the three groups of the male or female ICR mice continuously for 30 days at a daily dose of 10, 100 or 1000 µg/kg.
The examined organs are as follows: brain, heart, lung, liver, kidney, adrenal, spleen, pancreas, thyroid, hypophysis, thymus, mesentric lymph node, testis, ovary, uterus, stomach, small intestines (jejunum, ileum and duodenum), large intestines (colon and cecum), eyeball, submandibular gland, urinary bladder, backskin, muscle, sternum, marrow of sternum, femur and marrow of femur.

renal calculus = assay: Inhibition of formation of renal calculus in model rats (ethylene glycol + 1α-hydroxycholecarciferol); assay type: in vivo, Wistar rats; details: 10 µg/kg/1 ml/day p.o., four weeks
Description: As the test animals for renal calculus, the following rats were used.
Twenty male Wistar rats (age of 8 weeks and body weight of about 200 g) were allowed to take a water containing 0.5 % of ethylene glycol freely, and a mixture of 0.5 µg of 1α-hydroxycholecarciferol and 0.1 ml of triglyceride of a fatty acid of 8 to 10 carbon atoms was forcibly and orally administered by a stomach tube every other day for four weeks, thereafter being used as the test animals.
24R,25-(OH)₂-D₃ in the triglyceride of a fatty acid of 8 to 10 carbon atoms containing 2 % of ethanol was forcibly and orally administered to each of the test animals at a dose of 10µg/kg/1 ml/day by a stomach tube, and to each animals of the control group, the triglyceride of a fatty acid of 8 to 10 carbon atoms was administered in the same manner as above.
The animals were slaughtered after four weeks from the first administration, and the kidney of the animal was extirpated therefrom after the exsanguination and immediately photographed by soft X-ray. Furhter the cross section of the extirpated kidney containing papilla was observed by naked eyes.

male ICR mice = assay: Acute oral toxicity, single dose, 2 weeks observation; assay type: in vivo; details: 150 mg/kg p.o.
Description: (§1) After dissolving the present substance in ethanol, the thus formed solution was diluted by a triglyceride of a fatty acid of 8 to 10 carbon atoms so that the concentration of ethanol became 2 %. The thus formed solution was orally (p.o.) administered to each of 10 male ICR mice (age of 6 weeks, body weight of 25±3 g) at dose of 150 mg/kg. […] Accordingly, the acute oral LD₅₀ of the present substance is not less than […] and the present substance can be said to be extremely safe.

[1] = as above; assay type: in vivo, mice; details: mouse, in vivo, po, male ICR mice; read-out: acute oral LD₅₀
Description: as §1

SMILES | body weight change (growth curve) (male or female ICR mice) | histopathological examination of organs (hematoxylin·eosin) (male or female ICR mice) | calculi in the pelvis and the papilla of the kidney, observation by naked eyes (renal calculus; 10 rats, control group: 8 cases among 10 rats) | radial deposition of crystals in the renal parenchyma, observation by naked eyes (renal calculus; 10 rats, remarkably found in the control group) | formation of calculus, soft X-ray photograph of the kidney (renal calculus; compared with control rats) | survival / toxic symptoms (male ICR mice; 10 male ICR mice, observed for 2 weeks) | biochemical examination of the blood, autopsy and histopathological examination versus control animals (male ICR mice; male ICR mice, after slaughter at 2 weeks) | LD50 at 336 h [1] [mg/kg]
C=C1CC[C@H](O)C/C1=C/C=C1\CCC[C@]2(C)[C@@H]([C@H](C)CC[C@@H](O)C(C)(C)O)CC[C@@H]12 [24R,25-(OH)₂-D₃] | any significant difference in the body weight change was not recognized | any abnormal findings were not particularly recognized | any clear calculus was never recognized | one rat of 10 rats | clear inhibition of the formation of calculus | – | – | –
C=C1CC[C@H](O)C/C1=C/C=C1\CCC[C@]2(C)[C@@H]([C@H](C)CCC(O)C(C)(C)O)CC[C@@H]12 (some centres unmarked) [the present substance, 24,25-dihydroxycholecalciferol] | – | – | – | – | – | all the animals (10 mice) survived without any abnormality | no difference was found | ≥ 100
